Patent US20040086514A1, “Novel helicobacter pylori-binding substances and use thereof” (priority 1999, published 2004)
Entries after “also recorded” stand apart in the source; their conditions may differ.

Assays:
Helicobacter pylori [1] = experiment: Chromatogram binding assay: 35S-labeled Helicobacter pylori to glycosphingolipids on thin-layer plates; conditions: for binding of Helicobacter pylori in mixtures of reference glycosphingolipids: strain 17875, non-acid fractions of dog small intestine, guinea pig small intestine, mouse faeces (FIG. 1); for dependence of binding on other lipids or bile salts (Tween 20, deoxycholate) in the thin-layer chromatogram assay: coating buffer with or without detergent (FIG. 1); for binding of Helicobacter pylori to major acid glycosphingolipids of epithelial cells of human stomach: strains 002 and 032, identified tentatively by mobility on thin-layer chromatograms
Helicobacter pylori [2] = experiment: Inhibition of binding on thin-layer chromatograms with soluble oligosaccharides; conditions: for inhibition of binding of Helicobacter pylori to lactotetraosylceramide: 1 h room temperature, strain 17875 (FIG. 5)
Procedure: As a test for possible inhibition of binding by soluble sugars 35S-labeled Helicobacter pylori strains 002 and 032 were incubated for 1 h at room temperature with various concentrations (0.05 mg/ml, 0.1 mg/ml and 0.2 mg/ml) of lactotetraose (Accurate Chem. & Sci. Corp., Westbury, N.Y.) or lactose (J. T. Baker Chem. Co., Phillipsburg, N.J.) in PBS. Thereafter the chromatogram binding assay was performed as described above, using chromatograms with separated gangliotetraosylceramide, lactotetraosylceramide and reference glycosphingolipids.
The ability of soluble oligosaccharides to interfere with the binding of Helicobacter pylori to glycosphingolipids on thin-layer plates was examined by incubating radiolabelled Helicobacter pylori strain 17875 with free lactotetraose (0.1 mg/ml) or lactose (0.2 mg/ml) in PBS for 1 h at room temperature before the chromatogram binding assay of the suspensions. […] The lanes were: Galβ3GalNAcβ4Galβ4Glcβ1Cer (gangliotetraosylceramide), 4 μg (lane 1); Galβ3GlcNAcβ3Galβ4Glcβ1Cer (lactotetraosylceramide), 4 μg (lane 2); Galβ4GlcNAcβ3Galβ4Glcβ1Cer (neolactotetraosylceramide), 4 μg (lane 3). The glycosphingolipids were separated on aluminium-backed silica gel 60 HPTLC plates, using chloroform/methanol/water (60:35:8, by volume) as solvent system, and the binding assay was performed as described under “Materials and Methods”, using 2% BSA and 0.1% Tween 20 in PBS as coating buffer. Autoradiography was for 12 h.

lactosylceramide [reference compound]
binding of Helicobacter pylori in mixtures of reference glycosphingolipids (Helicobacter pylori [1]): binding

CC(=O)N[C@H]1[C@H](O[C@H]2[C@@H](O)[C@@H](CO)O[C@@H](O[C@H]3[C@H](O)[C@@H](O)C(O)O[C@@H]3CO)[C@@H]2O)O[C@H](CO)[C@@H](O)[C@@H]1O[C@@H]1O[C@H](CO)[C@H](O)[C@H](O)[C@H]1O (stereo partly shown) [lactotetraose, Galβ3GlcNAcβ3Galβ4Glc]
inhibition of binding of Helicobacter pylori to lactotetraosylceramide (Helicobacter pylori [2]; bacteria preincubated with 0.1 mg/ml in PBS): inhibited the binding
blocking of binding of H. pylori to gangliotetraosylceramide (Helicobacter pylori [2]; preincubation with soluble oligosaccharide (FIG. 5)): able to block binding

Galβ3GlcNAcβ3Galβ4Glcβ1Cer [No. 2]
Helicobacter pylori isolates expressing the lactotetraosylceramide binding capacity (Helicobacter pylori [1]; 66 isolates of Table I, lactotetraosylceramide of human meconium): 86%
recognition by sialic acid-binding H. pylori strain CCUG 17874 (Helicobacter pylori [1]; FIG. 11 B): recognised
recognition by H. pylori strain CCUG 17875 devoid of sialic acid binding capacity (Helicobacter pylori [1]; FIG. 11 C): recognised
effect of bacterial growth conditions on binding (Helicobacter pylori [1]; bacteria grown on agar and in broth, for 12 h and for 120 h): not affected
dependence of binding on other lipids or bile salts (Tween 20, deoxycholate) in the thin-layer chromatogram assay (Helicobacter pylori [1]): only when other lipids or bile salts, such as Tween 20 or deoxycholate, are used
binding by babAlA2 mutant strain (Helicobacter pylori [1]; gene coding for the Le^b-binding adhesin inactivated, data not shown): Binding
number of Helicobacter pylori isolates expressing the lactotetraosylceramide binding capacity (Helicobacter pylori [1]; of 66 isolates of Table I, lactotetraosylceramide of human meconium): 57

gangliotriaosylceramide [reference compound]
binding of Helicobacter pylori in mixtures of reference glycosphingolipids (Helicobacter pylori [1]): binding

OC[C@H]1O[C@@H](O[C@H]2[C@H](O)[C@@H](O)C(O)O[C@@H]2CO)[C@H](O)[C@@H](O)[C@H]1O (stereo partly shown) [lactose, reference compound]
inhibition of binding of Helicobacter pylori to lactotetraosylceramide (Helicobacter pylori [2]; bacteria preincubated with 0.2 mg/ml in PBS): no inhibitory effect

sulfatide [reference compound]
binding of Helicobacter pylori to major acid glycosphingolipids of epithelial cells of human stomach (Helicobacter pylori [1]): No binding; also recorded: non-existent

Galβ3GlcNAcβ3Galβ4Glcβ1Cer
binding activity relative to lactotetraosylceramide from human meconium (Helicobacter pylori [1]; ceramide exclusively sphingosine and non-hydroxy 16:0 and 24:0 fatty acids, not shown): as active as the lactotetraosylceramide from human meconium

Galβ3GalNAcβ4Galβ4Glcβ1Cer [gangliotetraosylceramide]
dependence of binding on other lipids or bile salts (Tween 20, deoxycholate) in the thin-layer chromatogram assay (Helicobacter pylori [1]): only marginally is affected
binding of Helicobacter pylori in mixtures of reference glycosphingolipids (Helicobacter pylori [1]): binding

maltoheptaose(red) -HDA [reference compound]
binding activity with regard to Helicobacter pylori in TLC-overlay assay (Helicobacter pylori [1]; 4-hexadecylaniline (HDA) derivatives, compared with lactotetraosylceramide glycosphingolipid): totally inactive

NeuAcα3Galβ4Glcβ1Cer [GM3, reference compound]
binding of Helicobacter pylori to major acid glycosphingolipids of epithelial cells of human stomach (Helicobacter pylori [1]): No binding
binding of Helicobacter pylori to major acid glycosphingolipids of epithelial cells of human stomach (Helicobacter pylori [1]; listed as GM3 ganglioside): non-existent
